One series can be described thus: Aqueous solubility. It counts as physicochemical. The settings on record: PB11 compared with PB2. The source says:
The present inventor rationalized, therefore, that derivatization of an inventive compound to a more hydrophilic drugable molecule, for instance via amidation of a carboxylic acid group or the amidation of an ester group could potentially improve water solubility, binding affinity and bioavailability. See below for synthetic methodology.

The next series has as its target T1, p53-hMDM2 complex (Homo sapiens, UniProt Q00987).
T1 construct: complex of p53 (res. 1-321)+Hdm2 (res. 1-125)
In words: 1D AIDA-NMR antagonist-induced dissociation assay. It counts as binding. The settings on record: p53 (res. 1-321) + Hdm2 (res. 1-125); FIG. 3.

Another series concerns the target Hdm2 (Homo sapiens, UniProt Q00987). To be noted: KD; method for each compound in column 'Method of KD calculation' (bin. titr., AIDA, FP, SPR).

These results are taken from patent US20130211079A1, “SUBSTITUTED HETEROCYCLES AS THERAPEUTIC AGENTS FOR TREATING CANCER” (priority 2010, published 2013).

Hdm2, sequence (Q00987 1-125): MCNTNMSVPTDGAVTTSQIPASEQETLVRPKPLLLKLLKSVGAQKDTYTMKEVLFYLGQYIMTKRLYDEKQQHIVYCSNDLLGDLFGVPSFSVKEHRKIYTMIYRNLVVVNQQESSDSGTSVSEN
T1 sequence (Q00987 1-125, one chain of several): as the sequence (Q00987 1-125) above
Description for Hdm2: The affinities of imidazoline compounds of the present invention towards MDM2 or MDM4 proteins was measured by 2D H^1—N^15 HSQC NMR spectroscopy.
Water suppression was carried out using the WATERGATE sequence. NMR spectra were acquired at 300 K on a Bruker DRX 600 MHz spectrometer equipped with a cryoprobe and the data was processed using the Bruker program Xwin-NMR V. 3.5.
NMR ligand binding experiments were carried out in an analogous way to those previously described. […] For instance, 500 μL of the protein sample, at a concentration of about 0.1 mM, in 10% D2O and a 20 mM stock solution of nutin-3 (purchased from Cayman Chemical, MI) in DMSO-d6 were used in all experiments. […]
For example, 500 μL of the protein sample, at a concentration of about 0.1 mM, in 10% D2O and a 20 mM stock solution of nutin-3 (purchased from Cayman Chemical, MI) in DMSO-d6 were used in all of the experiments. […] The ^1H—^15N—HSQC spectra were recorded using fast HSQC pulse sequence as described by Mori et al., J. Magn. […]
The fluorescence intensities parallel (Intparallel) and perpendicular (Intperpedicular) to the plane of excitation were measured in black 384-well NBS assay plates (Corning) at room temperature (˜20° C.). […]
All fluorescence polarization values were expressed in millipolarization units (mP). […] Plates were read at 30 min after mixing all assay components. […]

Take `CC(C)C[C@@]1(C(=O)NCCc2ccncc2)N=CN(CC2CC2)C1c1ccc(Cl)cc1` (mixture of isomers) [PB11, cis-5-(4-chlorophenyl)-1-(cyclopropylmethyl)-4-isobutyl-N-(2-(pyridin-4-yl)ethyl)-4,5-dihydro-1H-imidazole-4-carboxamide]: in the series “Aqueous solubility”, the water solubility result is on record as “improved”. Moreover, the “disruption of p53-hMDM2 complex (reappearance of Trp23 peak of p53)” value at p53-hMDM2 complex is listed as “dissociation of the p53-hMDM2 complex”.

Take `O=C1C(c2ccc(Cl)cc2)C(c2cc3ccc(Cl)cc3[nH]2)N1c1ccc(Cl)cc1` (stereo not shown) [PB15, 4-(6-Chloro-1H-indol-2-yl)-1,3-bis-(4-chlorophenyl)azetidin-2-one]: the “Binding to Hdm2” value on Hdm2 is “precipitation”.

For `Oc1ccc2ccc(Br)cc2c1C(NCC1CC1)c1ccc(Cl)cc1` (stereo not shown) [PB13, 7-Bromo-1-[(4-chlorophenyl)(cyclopropylmethylamino)methyl]naphthalen-2-ol], at Hdm2, the “Binding to Hdm2” value is reported as “precipitation”.
